Where two headings read alike, the source gives them in different places.
Tests used:
KMS-12-BM cell lines = test: KMS12 #2 flow cytometry assay (phospho-BAD Ser112); assay type: cell-based; details: KMS-12-BM cells, pBAD Ser112 by flow cytometry, 110 min with compound, read-out: KMS-12-Flow IC50 IP
Pim-1 = Pim-1 (Homo sapiens (Human), UniProt P11309); test: Pim-Mn enzyme assay (HTRF, 384-well), Pim-1; assay type: biochemical; details: Pim-1 enzyme 5 pM, ATP 1.5 μM, BAD (S112) 0.5 μM, HTRF, 22-point curve; read-out: Pim-1-Mn IC50 IP
Chain of Pim-1 (P11309 whole entry): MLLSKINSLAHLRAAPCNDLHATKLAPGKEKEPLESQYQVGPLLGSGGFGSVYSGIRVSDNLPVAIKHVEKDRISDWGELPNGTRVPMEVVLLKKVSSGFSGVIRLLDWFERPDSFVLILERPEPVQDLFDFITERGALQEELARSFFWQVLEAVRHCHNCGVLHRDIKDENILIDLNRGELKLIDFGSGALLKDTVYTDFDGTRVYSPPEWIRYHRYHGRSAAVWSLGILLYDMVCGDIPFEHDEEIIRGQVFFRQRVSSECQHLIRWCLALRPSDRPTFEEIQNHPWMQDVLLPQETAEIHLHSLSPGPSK

Pim-2 = Pim-2 (Homo sapiens (Human), UniProt Q9P1W9); test: Pim-Mn enzyme assay (HTRF, 384-well), Pim-2; assay type: biochemical; details: Pim-2 enzyme 0.5 pM, ATP 1.5 μM, BAD (S112) 0.5 μM, HTRF, 22-point curve; read-out: Pim-2-Mn IC50 IP
Chain of Pim-2 (Q9P1W9 whole entry): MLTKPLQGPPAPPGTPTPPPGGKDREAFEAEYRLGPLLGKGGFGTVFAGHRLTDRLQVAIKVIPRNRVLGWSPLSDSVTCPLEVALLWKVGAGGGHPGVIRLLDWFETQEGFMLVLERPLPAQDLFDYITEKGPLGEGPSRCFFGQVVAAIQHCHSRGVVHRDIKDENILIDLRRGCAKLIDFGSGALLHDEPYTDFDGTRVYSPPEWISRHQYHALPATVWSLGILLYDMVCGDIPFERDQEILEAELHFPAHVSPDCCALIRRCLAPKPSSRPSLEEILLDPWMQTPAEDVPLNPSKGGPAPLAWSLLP

| Structure (SMILES) | IC50 (KMS-12-BM cell lines; Homo sapiens, 110 min) [nM] | IC50 (KMS-12-BM cell lines) [nM] | IC50 (Pim-1) [nM] | IC50 (Pim-2) [nM] |
| --- | --- | --- | --- | --- |
| Cc1nc2cccc(-c3cc4c([nH]3)CCNC4=O)c2nc1-c1cnccc1Cl [Example 412, 2-(3-(4-chloro-3-pyridinyl)-2-methyl-5-quinoxalinyl)-1,5,6,7-tetrahydro-4H-pyrrolo[3,2-c]pyridin-4-one] | 21800 | – | – | – |
| Cc1nc2cccc(-c3cc4c([nH]3)CCNC4=O)c2nc1N[C@H]1C[C@@H](N2CCOC2=O)C1 [Example 443, 3-((1s,3s)-3-((3-methyl-8-(4-oxo-4,5,6,7-tetrahydro-1H-pyrrolo[3,2-c]pyridin-2-yl)quinoxalin-2-yl)amino)cyclobutyl)oxazolidin-2-one] | – | > 40000 | – | – |
| CCn1c(NC2(C)CC2)nc2c(-c3cc4c([nH]3)[C@@H](C)NC4=O)c(F)ccc2c1=O [Example 513, (R)-3-Ethyl-7-fluoro-8-(6-methyl-4-oxo-1,4,5,6-tetrahydropyrrolo[3,4-b]pyrrol-2-yl)-2-((1-methylcyclopropyl)amino)quinazolin-4(3H)-one] | – | – | 0.013 | 0.0378 |
| Cc1nc2cccc(-c3cc4n(c3)C(CCO)CNC4=O)c2nc1NC(C)(C)C (racemic) [Example 235, (±)-7-(3-(tert-butylamino)-2-methyl-5-quinoxalinyl)-4-(2-hydroxyethyl)-3,4-dihydropyrrolo[1,2-a]pyrazin-1(2H)-one] | – | – | 9.5 | 14.5 |
| C[C@H]1NC(=O)c2cc(-c3cccc4c(=O)n(-c5cccnc5)c(NC(C)(C)C)nc34)[nH]c21 [Example 482, 2-(tert-butylamino)-8-((6R)-6-methyl-4-oxo-1,4,5,6-tetrahydropyrrolo[3,4-b]pyrrol-2-yl)-3-(3-pyridinyl)-4(3H)-quinazolinone] | – | – | 0.718 | 2.77 |
| CC(=O)N1CCC[C@@H](Nc2nc3c(-c4cc5c([nH]4)CCNC5=O)cccc3nc2C)C1 [Example 241, 2-(3-(((3R)-1-acetyl-3-piperidinyl)amino)-2-methyl-5-quinoxalinyl)-1,5,6,7-tetrahydro-4H-pyrrolo[3,2-c]pyridin-4-one] | – | – | 43.7 | 68.4 |
| Cc1nc2cccc(-c3cc4c([nH]3)C(Cc3ccc(Cl)cc3)CNC4=O)c2nc1N (racemic) [Example 273, rac-2-(3-amino-2-methyl-5-quinoxalinyl)-7-(4-chlorobenzyl)-1,5,6,7-tetrahydro-4H-pyrrolo[3,2-c]pyridin-4-one] | – | – | 39 | 19.1 |
| Cc1nc2cccc(-c3cc4c([nH]3)CCNC4=O)c2nc1N[C@H]1CCCN(C(=O)OC(C)(C)C)C1 [Example 51, tert-butyl (3S)-3-((3-methyl-8-(4-oxo-4,5,6,7-tetrahydro-1H-pyrrolo[3,2-c]pyridin-2-yl)-2-quinoxalinyl)amino)-1-piperidinecarboxylate] | – | – | 191 | 220 |
| Cc1nc2cccc(-c3cc4c(=O)[nH]cnc4[nH]3)c2nc1F [Example 264, 6-(3-fluoro-2-methylquinoxalin-5-yl)-3H-pyrrolo[2,3-d]pyrimidin-4(7H)-one] | – | – | 1120 | 1690 |
| CC(=O)N1CCC(Nc2nc3c(-c4cc5c([nH]4)CCNC5=O)cccc3nc2C)CC1 [Example 50, 2-(3-((1-acetyl-4-piperidinyl)amino)-2-methyl-5-quinoxalinyl)-1,5,6,7-tetrahydro-4H-pyrrolo[3,2-c]pyridin-4-one] | – | – | 13.7 | 24.4 |
| Cc1nc2cccc(-c3cc4c([nH]3)CCNC4=O)c2nc1NC(C)(C)C(=O)O [Example 60, 2-methyl-N-(3-methyl-8-(4-oxo-4,5,6,7-tetrahydro-1H-pyrrolo[3,2-c]pyridin-2-yl)-2-quinoxalinyl)alanine] | – | – | 300 | 191 |
| Cc1nc2cccc(-c3cc4c([nH]3)CCNC4=O)c2nc1N[C@@H]1CCCN(C(=O)OC(C)(C)C)C1 [Example 52, tert-butyl (3R)-3-((3-methyl-8-(4-oxo-4,5,6,7-tetrahydro-1H-pyrrolo[3,2-c]pyridin-2-yl)-2-quinoxalinyl)amino)-1-piperidinecarboxylate] | – | – | 149 | 403 |
| Cc1nc2cccc(-c3cc4c([nH]3)CCNC4=O)c2nc1NC1CN(C)C1 [Example 243, 2-(2-methyl-3-((1-methyl-3-azetidinyl)amino)-5-quinoxalinyl)-1,5,6,7-tetrahydro-4H-pyrrolo[3,2-c]pyridin-4-one] | – | – | 853 | 1050 |
| Cc1nc2cccc(-c3cc4c([nH]3)CCNC4=O)c2nc1N[C@@H]1CCN(C(=O)OC(C)(C)C)C1 [Example 48, tert-butyl (3R)-3-((3-methyl-8-(4-oxo-4,5,6,7-tetrahydro-1H-pyrrolo[3,2-c]pyridin-2-yl)-2-quinoxalinyl)amino)-1-pyrrolidinecarboxylate] | – | – | 26.2 | 116 |
| Cc1nc2cccc(-c3cc4c([nH]3)CCNC4=O)c2nc1NC1CCN(C(=O)OC(C)(C)C)CC1 [Example 47, tert-butyl 4-((3-methyl-8-(4-oxo-4,5,6,7-tetrahydro-1H-pyrrolo[3,2-c]pyridin-2-yl)-2-quinoxalinyl)amino)-1-piperidinecarboxylate] | – | – | 13.2 | 34.9 |
| CC(=O)N[C@@H]1CCC[C@H](Nc2nc3c(-c4cc5c([nH]4)[C@@H](C)NC5=O)cccc3nc2C)C1 [Example 486, N-((1R,3S)-3-((3-methyl-8-((6R)-6-methyl-4-oxo-1,4,5,6-tetrahydropyrrolo[3,4-b]pyrrol-2-yl)-2-quinoxalinyl)amino)cyclohexyl)acetamide] | – | – | 1.73 | 2.38 |
| Cc1nc2cccc(-c3cc4c([nH]3)CCNC4=O)c2nc1N[C@H]1CCNC1 [Example 55, 2-(2-methyl-3-((3S)-3-pyrrolidinylamino)-5-quinoxalinyl)-1,5,6,7-tetrahydro-4H-pyrrolo[3,2-c]pyridin-4-one] | – | – | 0.7 | 3 |
| CC(=O)N1CC[C@@H](Nc2nc3c(-c4cc5c([nH]4)CCNC5=O)cccc3nc2C)C1 [Example 64, 2-(3-(((3R)-1-acetyl-3-pyrrolidinyl)amino)-2-methyl-5-quinoxalinyl)-1,5,6,7-tetrahydro-4H-pyrrolo[3,2-c]pyridin-4-one] | – | – | 25.9 | 34.5 |
| Cc1nc2cccc(-c3cc4c([nH]3)C[C@@H](C)NC4=O)c2nc1NC(C)(C)C [Example 289, (6R)-2-(3-(tert-butylamino)-2-methyl-5-quinoxalinyl)-6-methyl-1,5,6,7-tetrahydro-4H-pyrrolo[3,2-c]pyridin-4-one] | – | – | 2.69 | 3.37 |
| Cc1nc2cccc(-c3cc4c([nH]3)[C@@H](C)NC4=O)c2nc1N[C@H]1CCC[C@@H](NS(C)(=O)=O)C1 [Example 489, N-((1R,3S)-3-((3-methyl-8-((6R)-6-methyl-4-oxo-1,4,5,6-tetrahydropyrrolo[3,4-b]pyrrol-2-yl)-2-quinoxalinyl)amino)cyclohexyl)methanesulfonamide] | – | – | 4 | 2 |
| Cc1nc2cccc(-c3cc4c([nH]3)[C@@H](C)NC4=O)c2nc1N[C@H]1CCC[C@@H](N)C1 [Example 483, (6R)-2-(3-(((1S,3R)-3-aminocyclohexyl)amino)-2-methyl-5-quinoxalinyl)-6-methyl-5,6-dihydropyrrolo[3,4-b]pyrrol-4(1H)-one] | – | – | 0.0598 | 0.0358 |
| Cc1nc2cccc(-c3cc4c([nH]3)[C@@H](C)NC4=O)c2nc1N[C@H]1CCC[C@@H](NC(=O)[C@H](N)CO)C1 [Example 497, N-((1R,3S)-3-((3-methyl-8-((6R)-6-methyl-4-oxo-1,4,5,6-tetrahydropyrrolo[3,4-b]pyrrol-2-yl)-2-quinoxalinyl)amino)cyclohexyl)-D-serinamide] | – | – | 0.28 | 0.16 |
| C[C@H]1NC(=O)c2cc(-c3cccc4c(=O)n(CCCS(C)(=O)=O)c(NC(C)(C)C)nc34)[nH]c21 [Example 508, (R)-2-(tert-butylamino)-8-(6-methyl-4-oxo-1,4,5,6-tetrahydropyrrolo[3,4-b]pyrrol-2-yl)-3-(3-(methylsulfonyl)propyl)quinazolin-4(3H)-one] | – | – | 0.9 | 0.3 |
| C[C@H]1NC(=O)c2cc(-c3cccc4c(=O)n(C5CCC5)c(NC(C)(C)C)nc34)[nH]c21 [Example 507, (R)-2-(tert-Butylamino)-3-cyclobutyl-8-(6-methyl-4-oxo-1,4,5,6-tetrahydropyrrolo[3,4-b]pyrrol-2-yl)quinazolin-4(3H)-one] | – | – | 0.3 | 0.6 |
| Cc1nc2cccc(-c3cc4c([nH]3)CCNC4=O)c2nc1NC(C)(C)CS(C)(=O)=O [Example 274, 2-(3-((1,1-dimethyl-2-(methylsulfonyl)ethyl)amino)-2-methyl-5-quinoxalinyl)-1,5,6,7-tetrahydro-4H-pyrrolo[3,2-c]pyridin-4-one] | – | – | 44.4 | 39.5 |
| C[C@H]1NC(=O)c2cc(-c3c(F)ccc4c(=O)n(C5CC5)c(NC5(C)CC5)nc34)[nH]c21 [Example 495, (R)-3-cyclopropyl-7-fluoro-8-(6-methyl-4-oxo-1,4,5,6-tetrahydropyrrolo[3,4-b]pyrrol-2-yl)-2-((1-methylcyclopropyl)amino)quinazolin-4(3H)-one] | – | – | 0.046 | 0.06 |
| Cc1nc2cccc(-c3cc4c([nH]3)CCNC4=O)c2nc1N[C@H]1C[C@@H](NCCF)C1 [Example 477, 2-(3-(((1s,3s)-3-((2-fluoroethyl)amino)cyclobutyl)amino)-2-methylquinoxalin-5-yl)-6,7-dihydro-1H-pyrrolo[3,2-c]pyridin-4(5H)-one] | – | – | 1 | 1 |
